Test results: patent US6444617B1, “Fused-heterocycle dicarboxylic acid diamide derivatives or salts thereof, herbicide and usage thereof” (Nihon Nohyaku Co., Ltd., priority 1998, dated 2002)

Columns and labels:
Assay type in all cases: in vivo
[1] = tested on: cocklebur (Xanthium strumarium L.), Xs; assay: Test Example 3: herbicidal effect on upland weeds before emergence; conditions: dosage 5 kg/ha
Procedure, shortened: (§1)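 Pre-emergence spray of liquid prep, compound at set concentration; read at 14 d post-treatment; weed-kill rate calculated, effect graded.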

[2] = tested on: bird's eye speedwell (Veronica persica Poir.), Vp; assay: as above; conditions: dosage 5 kg/ha
Procedure, shortened: as §1

[3] = tested on: cleavers (Galium aparine L.), Ga; assay: as above; conditions: dosage 5 kg/ha
Procedure, shortened: as §1

[4] = tested on: forxtail grass (Alopecurus aequalis var. amurensis Ohwi), Am; assay: as above; conditions: foxtail grass, dosage 5 kg/ha
Procedure, shortened: as §1

[5] = tested on: barnyard grass (Echinochloa crus-galli Beauv.), Ec; assay: as above; conditions: dosage 5 kg/ha
Procedure, shortened: as §1

[6] = tested on: velvetleaf (Abutilon theophtasti L.), At; assay: as above; conditions: dosage 5 kg/ha
Procedure, shortened: as §1

[7] = tested on: barnyard grass (Echinochloa crus-galli Beauv.); assay: Test Example 2: herbicidal effect on paddy field weeds after emergence; conditions: Dosage 5 kg/ha; one-leaved stage; 21 days after treatment
Procedure, shortened: (§2)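 Weeds were sown in 1/10000 are pots of soil flooded to paddy conditions and grown to the one-leaf stage, then the soil was treated with a solution of compound at a predetermined dosage.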

[8] = tested on: bulrush (Scirpus juncoides Roxb.); assay: as above; conditions: Dosage 5 kg/ha; one-leaved stage; 21 days after treatment
Procedure, shortened: as §2

[9] = tested on: monochoria (Monochoria vaginalis Presl); assay: as above; conditions: Dosage 5 kg/ha; one-leaved stage; 21 days after treatment
Procedure, shortened: as §2

[10] = tested on: barnyard grass (Echinochloa crus-galli Beauv.); assay: Test Example 1: herbicidal effect on paddy field weeds before emergence; conditions: Dosage 5 kg/ha
Procedure, shortened: (§3)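 Grading reflects percent control relative to untreated plots, evaluated three weeks post-application. Treatment was a soil application of compound solution, predetermined dose, made to paddy-state pots before weed seeds germinated.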

[11] = tested on: bulrush (Scirpus juncoides Roxb.); assay: as above; conditions: Dosage 5 kg/ha
Procedure, shortened: as §3

wheat = assay: Test Example 4: phytotoxicity to upland crop plants, treatment after emergence; conditions: dosage 5 kg/ha, sprayed after emergence, judged 14 days after treatment
Procedure, shortened: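 Weeds, soybean and wheat were sown in soil-filled vats, covered with soil and grown to set leaf stages before a post-emergence spray of an agent containing the compound at a prescribed concentration. Weed-killing rate and crop phytotoxicity were assessed 14 days after treatment.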

soybean plant = assay: as above; conditions: dosage 5 kg/ha, sprayed after emergence, judged 14 days after treatment
Procedure, shortened: (§4)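 Post-emergence foliar spray, compound at prescribed concentration, applied at defined leaf stages; weeds plus soybean/wheat grown in soil vats. Read-out: weed-killing rate and crop injury, 14 d post-treatment.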

wheat (Wh) = assay: Test Example 3: phytotoxicity to upland crop plants, treatment before emergence; conditions: dosage 5 kg/ha
Procedure, shortened: (§5)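 Pre-emergence spray, test compound at prescribed conc. in liquid formulation; crop injury (soybean, wheat) read at day 14, scored by criterion.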

soybean plant (So) = assay: as above; conditions: dosage 5 kg/ha
Procedure, shortened: as §5

[12] = tested on: cocklebur (Xanthium strumarium L.), Xs; assay: Test Example 4: herbicidal effect on upland weeds after emergence; conditions: dosage 5 kg/ha; sprayed after emergence; judged 14 days after treatment
Procedure, shortened: as §4

[13] = tested on: bird's eye speedwell (Veronica persica Poir.), Vp; assay: as above; conditions: dosage 5 kg/ha; sprayed after emergence; judged 14 days after treatment
Procedure, shortened: as §4

[14] = tested on: cleavers (Galium aparine L.), Ga; assay: as above; conditions: dosage 5 kg/ha; sprayed after emergence; judged 14 days after treatment
Procedure, shortened: as §4

[15] = tested on: forxtail grass (Alopecurus aequalis var. amurensis Ohwi), Am; assay: as above; conditions: dosage 5 kg/ha; sprayed after emergence; judged 14 days after treatment
Procedure, shortened: as §4

[16] = tested on: barnyard grass (Echinochloa crus-galli Beauv.), Ec; assay: as above; conditions: dosage 5 kg/ha; sprayed after emergence; judged 14 days after treatment
Procedure, shortened: as §4

[17] = tested on: velvetleaf (Abutilon theophtasti L.), At; assay: as above; conditions: dosage 5 kg/ha; sprayed after emergence; judged 14 days after treatment
Procedure, shortened: as §4

Row | SMILES | Herbicidal effect Xs [1] | Herbicidal effect Vp [2] | Herbicidal effect Ga [3] | Herbicidal effect Am [4] | Herbicidal effect Ec [5] | Herbicidal effect At [6] | Post-emergence treatment Barnyard grass (herbicidal effect) [7] | Post-emergence treatment Bulrush (herbicidal effect) [8] | Post-emergence treatment Monochoria (herbicidal effect) [9] | Pre-emergence treatment Barnyard grass (herbicidal effect) [10] | Pre-emergence treatment Bulrush (herbicidal effect) [11] | Phytotoxicity Wh (wheat) | Phytotoxicity So (soybean plant) | Phytotoxicity Wh (wheat (Wh)) | Phytotoxicity So (soybean plant (So)) | Herbicidal effect Xs [12] | Herbicidal effect Vp [13] | Herbicidal effect Ga [14] | Herbicidal effect Am [15] | Herbicidal effect Ec [16] | further results
1 | Cc1c(Cl)cccc1NC(=O)c1cc2ccsc2nc1C(=O)NC1CCCC1 [compound 811] | 5 (Weed-killing rate is 100%.) | 5 (Weed-killing rate is 100%.) | 5 (Weed-killing rate is 100%.) | 5 (Weed-killing rate is 100%.) | 5 (Weed-killing rate is 100%.) | 5 (Weed-killing rate is 100%.) | 5 (Weed-killing rate is 100%.) | 5 (Weed-killing rate is 100%.) | 5 (Weed-killing rate is 100%.) | 5 (Weed-killing rate is 100%.) | 5 (Weed-killing rate is 100%.) | 5 (Crop-killing rate is 100%.) | 4 (Crop-killing rate is 90-99%.) | 5 (Crop-killing rate is 100%.) | 4 (Crop-killing rate is 90-99%.) | 4 (Weed-killing rate is 90-99%.) | 5 (Weed-killing rate is 100%.) | 4 (Weed-killing rate is 90-99%.) | 5 (Weed-killing rate is 100%.) | 5 (Weed-killing rate is 100%.) | Herbicidal effect At [17]: 5 (Weed-killing rate is 100%.)
2 | CCCNC(=O)c1nc2scc(Br)c2cc1C(=O)Nc1c(CC)ccc(Cl)c1CC [compound 814] | 4 (Weed-killing rate is 90-99%.) | 5 (Weed-killing rate is 100%.) | 4 (Weed-killing rate is 90-99%.) | 5 (Weed-killing rate is 100%.) | 5 (Weed-killing rate is 100%.) | 5 (Weed-killing rate is 100%.) | 5 (Weed-killing rate is 100%.) | 5 (Weed-killing rate is 100%.) | 5 (Weed-killing rate is 100%.) | 5 (Weed-killing rate is 100%.) | 5 (Weed-killing rate is 100%.) | 4 (Crop-killing rate is 90-99%.) | 3 (Crop-killing rate is 70-89%.) | 4 (Crop-killing rate is 90-99%.) | 3 (Crop-killing rate is 70-89%.) | 4 (Weed-killing rate is 90-99%.) | 5 (Weed-killing rate is 100%.) | 4 (Weed-killing rate is 90-99%.) | 5 (Weed-killing rate is 100%.) | 5 (Weed-killing rate is 100%.) | Herbicidal effect At [17]: 5 (Weed-killing rate is 100%.)
3 | CCCNC(=O)c1nc2c(ccn2C)cc1C(=O)Nc1c(CC)ccc(Cl)c1CC [compound 824] | 5 (Weed-killing rate is 100%.) | 5 (Weed-killing rate is 100%.) | 5 (Weed-killing rate is 100%.) | 5 (Weed-killing rate is 100%.) | 5 (Weed-killing rate is 100%.) | 5 (Weed-killing rate is 100%.) | 5 (Weed-killing rate is 100%.) | 5 (Weed-killing rate is 100%.) | 5 (Weed-killing rate is 100%.) | 5 (Weed-killing rate is 100%.) | 5 (Weed-killing rate is 100%.) | 5 (Crop-killing rate is 100%.) | 4 (Crop-killing rate is 90-99%.) | 5 (Crop-killing rate is 100%.) | 5 (Crop-killing rate is 100%.) | 5 (Weed-killing rate is 100%.) | 5 (Weed-killing rate is 100%.) | 5 (Weed-killing rate is 100%.) | 5 (Weed-killing rate is 100%.) | 5 (Weed-killing rate is 100%.) | Herbicidal effect At [17]: 5 (Weed-killing rate is 100%.)
4 | CCCNC(=O)c1nc2cscc2cc1C(=O)Nc1c(CC)ccc(Cl)c1CC [compound 836] | 5 (Weed-killing rate is 100%.) | 5 (Weed-killing rate is 100%.) | 5 (Weed-killing rate is 100%.) | 5 (Weed-killing rate is 100%.) | 5 (Weed-killing rate is 100%.) | 5 (Weed-killing rate is 100%.) | 5 (Weed-killing rate is 100%.) | 5 (Weed-killing rate is 100%.) | 5 (Weed-killing rate is 100%.) | 5 (Weed-killing rate is 100%.) | 5 (Weed-killing rate is 100%.) | 5 (Crop-killing rate is 100%.) | 4 (Crop-killing rate is 90-99%.) | 5 (Crop-killing rate is 100%.) | 4 (Crop-killing rate is 90-99%.) | 5 (Weed-killing rate is 100%.) | 5 (Weed-killing rate is 100%.) | 5 (Weed-killing rate is 100%.) | 5 (Weed-killing rate is 100%.) | 5 (Weed-killing rate is 100%.) | Herbicidal effect At [17]: 5 (Weed-killing rate is 100%.)
